According to patent US20250129088A1, “CEREBLON E3 UBIQUITIN LIGASE INHIBITOR” (Gan & Lee Pharmaceuticals Co., Ltd., priority 2022, published 2025):

Experiments:
[1] = target: E3 ubiquitin ligase CRBN (Homo sapiens (Human), UniProt Q96SW2); assay: CRBN binding activity, HTRF competition with Thalidomide-Red (CEREBLON BINDING KIT); settings: competition with XL665-labelled thalidomide, 3 hours room temperature
Protocol: From this, the binding force of the compounds to the CRBN protein was determined.
CRBN binding activity test kit (CEREBLON BINDING KITS (PE, 64BDCRBNPEG).
The detection is based on homogeneous time-resolved fluorescence (HTRF) technology.
The donor used in this kit was Europium-labeled GST antibody (GST Eu Cryptate Antibody), and the acceptor was thalidomide labeled with XL665 (Thalidomide-Red reagent). The donor binded to the CRBN protein containing the GST tag.
The donor and acceptor were diluted 50 times using the binding buffer from the kit (PROTAC binding buffer 1). The CRBN protein was diluted 45 times. The disclosed compound solution at 8 mM was diluted 10 times with the diluent from the kit (1× diluent), followed by a five-fold gradient dilution, performed 7 times sequentially.
Incubate at room temperature for 3 hours.
The ratio of the emission signals from the acceptor and donor in each individual well is calculated.
The coefficient of variation (CV)=standard deviation (SD)/mean Ratio*100
Using GraphPad Prism, IC50 values were calculated based on compound concentration, Ratio and coefficient of variation.

[2] = test system: Z138 cells; assay: Z138 cell proliferation inhibition, CCK-8; type: cell-based; settings: Homo sapiens, Z-138, 96 h, Z138, 4 days
Protocol: The complete medium required for Z138 cells is IMDM (ATCC, Product number: 30-2005) basal medium containing 10% horse serum. Z138 cells were seeded in a 96-well plate at a density of 10,000 cells/well, and different concentrations of the compound of the present invention and a positive control sample Ibrutinib (source: Bide Pharmaceuticals) were prepared to treat the cells. The cells were incubated in a 37° C., 5% CO2 cell incubator for 4 days. Cell viability was detected using the CCK-8 kit (Beyotime, Product number: C0040) according to the manufacturer's instructions. According to the inhibition rate, the GraphPad Prism software was used to calculate the IC50 value of each compound for 4 days, and the results are shown in Table 14.

[3] = test system: MV-4-11 cells; assay: MV-4-11 cell proliferation inhibition, CCK-8; type: cell-based; settings: Homo sapiens, MV4-11, 96 h, MV-4-11, 4 days, Table 8, positive control Ibrutinib
Method in brief: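 MV-4-11 cells (7,500/well) in IMDM with 10% FBS were exposed to graded compound concentrations for 4 days at 37 °C, 5% CO2. Viability was measured with CCK-8, and IC50 values were derived from inhibition rates.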

[4] = test system: NCI-H358 cells; assay: NCI-H358 cell proliferation inhibition, CCK-8; type: cell-based; settings: Homo sapiens, 96 h, NCI-H358, 4 days
Protocol: The complete medium required for NCI-H358 cells is RPMI1640 (ATCC, Product number: 30-2001) basal medium containing 10% fetal bovine serum. NCI-H358 cells were seeded in a 96-well plate at a density of 2,800 cells/well, and the next day, different concentrations of the compounds of the present invention were prepared to treat the cells, and the cells were treated for 4 days in a 37° C., 5% CO2 cell culture incubator. Cell viability was detected using a CCK-8 kit (Beyotime, Product number: C0040) according to the manufacturer's instructions. According to the inhibition rate, the GraphPad Prism software was used to calculate the IC50 value of each compound for 4 days, and the results are shown in Table 5.

[5] = test system: JeKo-1 cells; assay: JeKo-1 cell proliferation inhibition, CCK-8; type: cell-based; settings: Homo sapiens, 96 h, JeKo-1, 4 days
Protocol: The complete medium required for JeKo-1 cells is RPMI1640 (ATCC, Product number: 30-2001) basal medium containing 20% fetal bovine serum. The JeKo-1 cells were seeded in a 96-well plate at a density of 10,000 cells/well, and different concentrations of the compounds of the present invention were prepared to treat the cells at the same time. The cells were incubated at a 37° C., 5% CO2 cell culture incubator for 4 days. Cell viability was detected using the CCK-8 kit (Beyotime, Product number: C0040) according to the manufacturer's instructions. According to the inhibition rate, the GraphPad Prism software was used to calculate the IC50 value of each compound for 4 days, and the results are shown in Table 13.

IC50 [1] [µM] | IC50 [4] [µM] | Structure (SMILES) | IC50 [2] [µM] | other results
3 | – | O=C1CCC(N2Cc3cc4c(cc3C2=O)CCC2(CCNCC2)O4)C(=O)N1 (centres unmarked) [Compound12, 3-(6′-oxo-3′,4′,6′,8′-tetrahydro-7′H-spiro[piperidine-4,2′-pyrano[2,3-f]isoindole]-7′-yl)piperidine-2,6-dione] | – | –
3.9 | – | O=C1CCC(N2Cc3cc4c(cc3C2=O)CCC2(CNC2)O4)C(=O)N1 (centres unmarked) [Compound13, 3-(6′-oxo-3′,4′,6′,8′-tetrahydro-7′H-spiro[azetidine-3,2′-pyrano[2,3-f]isoindole]-7′-yl)piperidine-2,6-dione] | – | –
1.2 | – | O=C1CCC(N2Cc3cc4c(cc3C2=O)OCC2(CCNCC2)O4)C(=O)N1 (centres unmarked) [Compound16, 3-(6′-oxo-6′,8′-dihydro-3′H,7′H-spiro[piperidine-4,2′-[1,4]dioxino[2,3-f]isoindole]-7′-yl)piperidine-2,6-dione] | – | –
– | – | C=CC(=O)N1CCC[C@@H](n2nc(-c3ccc(Oc4ccccc4)cc3)c3c(N)ncnc32)C1 [Ibrutinib, reference compound] | 21.1 | IC50 [3]: 0.077 µM
– | 16.8 | COc1cc2ncnc(Nc3ccc(F)c(Cl)c3)c2cc1OCCCN1CCN(CCOCCC(=O)N2CCC3(CCc4cc5c(cc4O3)C(=O)N(C3CCC(=O)NC3=O)C5)CC2)CC1 (centres unmarked) [PROTAC 17, 3-(1-(3-(2-(4-(3-((4-((3-chloro-4-fluorophenyl)amino)-7-methoxyquinazolin-6-yl)oxy)propyl)piperazin-1-yl)ethoxy)propionyl)-8′-oxo-3′,4′,6′,8′-tetrahydro-7′H-spiro[piperidine-4,2′-pyrano[2,3-f]isoindole]-7′-yl)piperidine-2,6-dione] | – | –
– | 42.6 | COc1cc2ncnc(Nc3ccc(F)c(Cl)c3)c2cc1OCCCN1CCN(CCOCCC(=O)N2CCC3(CC2)COc2cc4c(cc2O3)CN(C2CCC(=O)NC2=O)C4=O)CC1 (centres unmarked) [PROTAC 18, 3-(1-(3-(2-(4-(3-((4-((3-chloro-4-fluorophenyl)amino)-7-methoxyquinazolin-6-yl)oxy)propyl)piperazin-1-yl)ethoxy)propionyl)-6′-oxo-6′,8′-dihydro-3′H,7′H-spiro[piperidine-4, 2′-[1,4]dioxino[2,3-f]isoindol]-7′-yl)piperidine-2,6-dione] | – | –
– | 23.2 | COc1cc2ncnc(Nc3ccc(F)c(Cl)c3)c2cc1OCCCN1CCN(CCOCCC(=O)N2CCC3(CCc4cc5c(cc4O3)C(=O)N(C3CCC(=O)NC3=O)C5=O)CC2)CC1 (centres unmarked) [PROTAC 21, 1-(3-(2-(4-(3-((4-((3-chloro-4-fluorophenyl)amino)-7-methoxyquinazolin-6-yl)oxy)propyl)piperazin-1-yl)ethoxy)propionyl)-7′-(2,6-dioxopiperidin-3-yl)-3′,4′-dihydro-6′H-spiro[piperidine-4,2′-pyrano[2,3-f]isoindole]-6′,8′(7′H)-dione] | – | –
– | 52.1 | COc1cc2ncnc(Nc3ccc(F)c(Cl)c3)c2cc1OCCCN1CCN(CCOCCC(=O)N2CCC3(CC2)COc2cc4c(cc2C3)C(=O)N(C2CCC(=O)NC2=O)C4=O)CC1 (centres unmarked) [PROTAC 22, 1-(3-(2-(4-(3-((4-((3-chloro-4-fluorophenyl)amino)-7-methoxyquinazolin-6-yl)oxy)propyl)piperazin-1-yl)ethoxy)propionyl)-7′-(2,6-dioxopiperidin-3-yl)-2′H-spiro[piperidine-4,3′-pyrano[2,3-f]isoindole]-6′,8′(4′H,7′H)-dione] | – | –
– | 71.2 | COc1cc2ncnc(Nc3ccc(F)c(Cl)c3)c2cc1OCCCN1CCN(CCOCCC(=O)N2CC3(CCc4cc5c(cc4O3)C(=O)N(C3CCC(=O)NC3=O)C5=O)C2)CC1 (centres unmarked) [PROTAC 23, 1-(3-(2-(4-(3-((4-((3-chloro-4-fluorophenyl)amino)-7-methoxyquinazolin-6-yl)oxy)propyl)piperazin-1-yl)ethoxy)propionyl)-7′-(2,6-dioxopiperidin-3-yl)-3′,4′-dihydro-6′H-spiro[azetidine-3,2′-pyrano[2,3-f]isomdole]-6′,8′(7′H)-dione] | – | –
– | 31.2 | COc1cc2ncnc(Nc3ccc(F)c(Cl)c3)c2cc1OCCCN1CCN(CCOCCC(=O)N2CCC3(CC2)COc2cc4c(cc23)C(=O)N(C2CCC(=O)NC2=O)C4=O)CC1 (centres unmarked) [PROTAC 24, 1′-(3-(2-(4-(3-((4-((3-chloro-4-fluorophenyl)amino)-7-methoxyquinazolin-6-yl)oxy)propyl)piperazin-1-yl)ethoxy)propionyl)-6-(2,6-dioxopiperidin-3-yl)-6-hydro-2H,5H-spiro[furo[2,3-f]isoindole-3,4′-piperdine]-5,7-dione] | – | –
– | – | Nc1ncnc2c1c(-c1ccc(Oc3ccccc3)cc1)nn2[C@@H]1CCCN(CCOCCC(=O)N2CCC3(CCc4cc5c(cc4O3)C(=O)N(C3CCC(=O)NC3=O)C5=O)CC2)C1 (stereo partly drawn) [PROTAC 32, 1-(3-(2-((R)-3-(4-amino-3-(4-phenoxyphenyl)-1H-pyrazolo[3,4-d]pyrimidin-1-yl)piperidin-1-yl)ethoxy)propionyl)-7′-(2,6-dioxopiperidin-3-yl)-3′,4′-dihydro-6′H-spiro[piperidin-4,2′-pyrano[2,3-f]isoindole]-6′,8′(7′H)-dione] | 16 | IC50 [5]: 18.4 µM
– | – | Nc1ncnc2c1c(-c1ccc(Oc3ccccc3)cc1)nn2[C@@H]1CCCN(CCOCCC(=O)N2CC3(CCc4cc5c(cc4O3)C(=O)N(C3CCC(=O)NC3=O)C5=O)C2)C1 (stereo partly drawn) [PROTAC 33, 1-(3-(2-((R)-3-(4-amino-3-(4-phenoxyphenyl)-1H-pyrazolo[3,4-d]pyrimidin-1-yl)piperidin-1-yl)ethoxy)propionyl)-7′-(2,6-dioxopiperidin-3-yl)-3′,4′-dihydro-6′H-spiro[azetidine-3,2′-pyrano[2,3-f]isoindole]-6′,8′(7′H)-dione] | 34.9 | IC50 [5]: 63.8 µM
– | – | Nc1ncnc2c1c(-c1ccc(Oc3ccccc3)cc1)nn2[C@@H]1CCCN(CCOCCC(=O)N2CCC3(CC2)COc2cc4c(cc2C3)C(=O)N(C2CCC(=O)NC2=O)C4=O)C1 (stereo partly drawn) [PROTAC 34, 1-(3-(2-((R)-3-(4-amino-3-(4-phenoxyphenyl)-1H-pyrazolo[3,4-d]pyrimidin-1-yl)piperidin-1-yl)ethoxy)propionyl)-7′-(2,6-dioxopiperidin-3-yl)-2′H-spiro[piperidine-4,3′-pyrano[2,3-f]isoindole]-6′,8′(4′H,7′H)-dione] | 13.9 | –
– | – | Nc1ncnc2c1c(-c1ccc(Oc3ccccc3)cc1)nn2[C@@H]1CCCN(CCOCCC(=O)N2CCC3(CCc4cc5c(cc4O3)CN(C3CCC(=O)NC3=O)C5=O)CC2)C1 (stereo partly drawn) [PROTAC 35, 3-(1-(3-(2-((R)-3-(4-amino-3-(4-phenoxyphenyl)-1H-pyrazolo[3,4-d]pyrimidine-1-yl)piperidin-1-yl)ethoxy)propionyl)-6′-oxo-3′,4′,6′,8′-tetrahydro-7′H-spiro[piperidine-4, 2′-pyrano[2,3-f]isoindol]-7′-yl)piperidine-2,6-dione] | 22.6 | IC50 [5]: 19.1 µM

Structure (SMILES) | IC50 [1] [µM] | IC50 [4] [µM] | IC50 [2] [µM] | other results
O=C1CCC(N2C(=O)c3cc4c(cc3C2=O)C2(CCNCC2)CO4)C(=O)N1 (centres unmarked) [Compound17, 6-(2,6-dioxopiperidin-3-yl)-6-hydro-2H, 5H-spiro[[2,3-f]isoindole-3,4′-piperidin]-5,7-dione] | 15.2 | – | – | –
O=C1CCC(N2C(=O)c3ccc4c(c3C2=O)C2(CCNCC2)CO4)C(=O)N1 (centres unmarked) [Compound27, 2-(2,6-dioxopiperidin-3-yl)-2-hydro-1H,7H-spiro[furo[3,2-e]isoindole-8,4′-piperidine]-1,3-dione] | 36.4 | – | – | –
